In ChEMBL document CHEMBL1140419, “Synthesis of doxorubicin-peptide conjugate with multidrug resistant tumor cell killing activity” (Bioorg Med Chem Lett, 2005) one finds permeability, IC50 and Activity data, which are given here for two molecules.

Data set [1] relates to NCI/ADR-RES. As to the kind of experiment: Percentage intracellular concentration in MCF7/ADR drug-resistant cell line. To be noted: human. In kind it is ADME, cell-based.
In data set [2] the test system is MCF7. As to the kind of experiment: Tumor killing activity in MCF7 breast cancer cells by MTT assay. In kind it is functional, cell-based. To be noted: Homo sapiens. For orientation: Tetrazolium dyes change colour on reduction, which living cells bring about.
The subject of data set [3] is NCI/ADR-RES. As to the kind of experiment: Tumor killing activity in MCF7/ADR drug-resistant cell line by MTT assay. In kind it is functional, cell-based. To be noted: Homo sapiens.
In data set [4] the test system is AT3B-1. Description: Tumor killing activity in AT3B1 drug-resistant cell line by MTT assay. In kind it is functional, cell-based. To be noted: Rattus norvegicus.
For data set [5], the system named is NCI/ADR-RES. As to the kind of experiment: Tumor killing activity in MCF7/ADR drug-resistant cell line with 10 uM verapamil (P-gp inhibitor). In kind it is functional, cell-based. The note with it: Homo sapiens.
Data set [6] relates to AT3B-1. As to the kind of experiment: Inhibition of tumor killing activity in AT3B1 drug-resistant cell line with 10 uM verapamil (P-gp inhibitor). In kind it is functional, cell-based. The note with it: Rattus norvegicus.
For data set [7], the system named is MCF7. Description: Cytotoxicity on drug-sensitive MCF7 cells. In kind it is functional, cell-based. The note with it: Homo sapiens.
The subject of data set [8] is AT3B-1. As to the kind of experiment: Percentage intracellular concentration in AT3B1 drug-resistant cell line. In kind it is ADME, cell-based, Homo sapiens.
The test system of data set [9] is MCF7. Description: Percentage intracellular concentration in MCF7 breast cancer cells. To be noted: human. In kind it is ADME, cell-based.

Structures are written as SMILES.

The term IC50 denotes the midpoint of a concentration-inhibition curve. A high value points to weaker potency in that assay. For the molecule `COc1cccc2c1C(=O)c1c(O)c3c(c(O)c1C2=O)C[C@@](O)(C(=O)CO)C[C@@H]3O[C@H]1C[C@H](NC(=O)C2CCC(CN3C(=O)CC(SC[C@H](N)C(=O)NCC(=O)NCC(=O)NCC(=O)N[C@@H](Cc4ccc(O)cc4)C(=O)NCC(=O)N[C@@H](CCCN=C(N)N)C(=O)N[C@@H](CCCCN)C(=O)N[C@@H](CCCCN)C(=O)N[C@@H](CCCN=C(N)N)C(=O)N[C@@H](CCCN=C(N)N)C(=O)N[C@@H](CCC(N)=O)C(=O)N[C@@H](CCCN=C(N)N)C(=O)N[C@@H](CCCN=C(N)N)C(=O)N[C@@H](CCCN=C(N)N)C(=O)O)C3=O)CC2)[C@H](O)[C@H](C)O1` (some centres not stated), the permeability with NCI/ADR-RES [1] worked out at 58.4%; in the data set on AT3B-1 [8], 49.3%; in the data set on MCF7 [9] it was 84.6%. Moreover, the IC50 in the data set on MCF7 [2] turned out to be 0.28 µM; in the data set with NCI/ADR-RES [3], 5.8 µM; in the data set on AT3B-1 [4], 23.4 µM; in the data set with NCI/ADR-RES [5], 5.2 µM; with AT3B-1 [6], 23.8 µM. Also, the Activity result in the data set with MCF7 [7] is “Dose-dependent effect”.
As for `COc1cccc2c1C(=O)c1c(O)c3c(c(O)c1C2=O)C[C@@](O)(C(=O)CO)C[C@@H]3O[C@H]1C[C@H](N)[C@H](O)[C@H](C)O1` [DOXORUBICIN], the permeability is reported as 4.5% with NCI/ADR-RES [1], 7.9% in the data set on AT3B-1 [8] and 92.3% in the data set with MCF7 [9]. Moreover, the IC50 in the data set with NCI/ADR-RES [3] is 45.2 µM; in the data set on AT3B-1 [4] it was 168 µM; with NCI/ADR-RES [5], 6.7 µM; in the data set on AT3B-1 [6], 42.4 µM. For the same molecule, the Activity entry in the data set on MCF7 [7] is “Dose-dependent effect”.
